HELM strings list units from the 5' end as sugar, base in round brackets, then linkage (d deoxyribose, r ribose, m 2'-O-methyl, p phosphodiester). Strings are as the collection lists them; they lack the last nucleoside at the 3' end of the tested compound. [moe] = 2'-O-(2-methoxyethyl) (MOE); [sp] = phosphorothioate linkage; [m5C] = 5-methylcytosine
Molecular target: LRRK2
Assay: mouse, dose not given
Settings: ASO

In order of falling 3 h FOB score:
1. RNA1{[moe](T)[sp].[moe]([m5C])p.[moe](A)[sp].[moe](T)[sp].[moe](T)[sp].d([m5C])[sp].d(G)[sp].d(G)[sp].d(T)[sp].d(T)[sp].d(A)[sp].d(T)[sp].d(A)[sp].d(A)[sp].d(G)[sp].[moe](G)[sp].[moe]([m5C])p.[moe](A)[sp].[moe]([m5C])}$$$$ (last 3' nucleoside missing)  7 score 0-7
2. RNA1{[moe](A)[sp].[moe](G)[sp].[moe](T)[sp].[moe](T)[sp].[moe]([m5C])[sp].d([m5C])[sp].d(T)[sp].d(T)[sp].d([m5C])[sp].d(A)[sp].d(G)[sp].d(T)[sp].d([m5C])[sp].d(T)[sp].d([m5C])[sp].[moe](A)[sp].[moe](A)p.[moe](G)[sp].[moe](G)}$$$$ (last 3' nucleoside missing)  7 score 0-7
3. RNA1{[moe](A)[sp].[moe](G)p.[moe](T)p.[moe](T)p.[moe](T)[sp].d([m5C])[sp].d(A)[sp].d(T)[sp].d(T)[sp].d([m5C])[sp].d(G)[sp].d(G)[sp].d(T)[sp].d(T)[sp].d(A)[sp].[moe](T)p.[moe](A)p.[moe](A)[sp].[moe](G)}$$$$ (last 3' nucleoside missing)  7 score 0-7
4. RNA1{[moe](G)[sp].[moe]([m5C])p.[moe]([m5C])[sp].[moe](A)[sp].[moe]([m5C])[sp].d(T)[sp].d(T)[sp].d(T)[sp].d([m5C])[sp].d(A)[sp].d(G)[sp].d([m5C])[sp].d([m5C])[sp].d(A)[sp].d([m5C])[sp].[moe](T)[sp].[moe](T)p.[moe]([m5C])[sp].[moe](A)}$$$$ (last 3' nucleoside missing)  7 score 0-7
5. RNA1{[moe]([m5C])[sp].[moe]([m5C])p.[moe](A)[sp].[moe]([m5C])[sp].[moe](A)[sp].d(A)[sp].d(A)[sp].d([m5C])[sp].d(T)[sp].d([m5C])[sp].d(A)[sp].d(T)[sp].d(G)[sp].d(G)[sp].d(A)[sp].[moe]([m5C])[sp].[moe](T)p.[moe](T)[sp].[moe]([m5C])}$$$$ (last 3' nucleoside missing)  7 score 0-7
6. RNA1{[moe](G)[sp].[moe]([m5C])p.[moe](T)p.[moe](G)p.[moe](T)[sp].d(A)[sp].d(A)[sp].d(T)[sp].d(A)[sp].d([m5C])[sp].d(G)[sp].d(G)[sp].d([m5C])[sp].d(A)[sp].d(T)[sp].[moe]([m5C])p.[moe](T)p.[moe]([m5C])[sp].[moe](G)}$$$$ (last 3' nucleoside missing)  6 score 0-7
7. RNA1{[moe](T)[sp].[moe](G)p.[moe](T)[sp].[moe]([m5C])[sp].[moe](A)[sp].d([m5C])[sp].d([m5C])[sp].d(T)[sp].d(T)[sp].d(T)[sp].d([m5C])[sp].d([m5C])[sp].d([m5C])[sp].d(A)[sp].d(A)[sp].[moe](T)[sp].[moe](G)p.[moe]([m5C])[sp].[moe](T)}$$$$ (last 3' nucleoside missing)  5 score 0-7
8. RNA1{[moe]([m5C])[sp].[moe](A)p.[moe](T)p.[moe](A)p.[moe](A)[sp].d(G)[sp].d(T)[sp].d(T)[sp].d(T)[sp].d([m5C])[sp].d(A)[sp].d(T)[sp].d(T)[sp].d([m5C])[sp].d(G)[sp].[moe](G)p.[moe](T)p.[moe](T)[sp].[moe](A)}$$$$ (last 3' nucleoside missing)  5 score 0-7
9. RNA1{[moe]([m5C])[sp].[moe]([m5C])p.[moe](A)[sp].[moe]([m5C])[sp].[moe](A)[sp].d(A)[sp].d(A)[sp].d([m5C])[sp].d(T)[sp].d([m5C])[sp].d(A)[sp].d(T)[sp].d(G)[sp].d(G)[sp].d(A)[sp].[moe]([m5C])p.[moe](T)p.[moe](T)[sp].[moe]([m5C])}$$$$ (last 3' nucleoside missing)  5 score 0-7
10. RNA1{[moe](T)[sp].[moe](T)p.[moe]([m5C])[sp].[moe](A)[sp].[moe](T)[sp].d(A)[sp].d(G)[sp].d([m5C])[sp].d(T)[sp].d(T)[sp].d([m5C])[sp].d([m5C])[sp].d(A)[sp].d([m5C])[sp].d([m5C])[sp].[moe](A)[sp].[moe]([m5C])p.[moe](A)[sp].[moe](A)}$$$$ (last 3' nucleoside missing)  5 score 0-7
11. RNA1{[moe]([m5C])[sp].[moe]([m5C])p.[moe](T)[sp].[moe](G)[sp].[moe](A)[sp].d([m5C])[sp].d(A)[sp].d(T)[sp].d(T)[sp].d(G)[sp].d([m5C])[sp].d([m5C])[sp].d(A)[sp].d([m5C])[sp].d(T)[sp].[moe]([m5C])[sp].[moe](A)p.[moe](T)[sp].[moe](G)}$$$$ (last 3' nucleoside missing)  4 score 0-7
12. RNA1{[moe](T)[sp].[moe]([m5C])p.[moe](T)p.[moe](T)p.[moe]([m5C])[sp].d(A)[sp].d(G)[sp].d(T)[sp].d(T)[sp].d([m5C])[sp].d([m5C])[sp].d(T)[sp].d(T)[sp].d([m5C])[sp].d(A)[sp].[moe](G)p.[moe](T)p.[moe]([m5C])[sp].[moe](T)}$$$$ (last 3' nucleoside missing)  3 score 0-7
13. RNA1{[moe](G)[sp].[moe](A)p.[moe](G)[sp].[moe](T)[sp].[moe](G)[sp].d([m5C])[sp].d(A)[sp].d(T)[sp].d(G)[sp].d(G)[sp].d([m5C])[sp].d(A)[sp].d(T)[sp].d([m5C])[sp].d(A)[sp].[moe](A)[sp].[moe](A)p.[moe](A)[sp].[moe](A)}$$$$ (last 3' nucleoside missing)  2 score 0-7
14. RNA1{[moe](G)[sp].[moe](T)p.[moe](G)p.[moe]([m5C])p.[moe](A)[sp].d(A)[sp].d(G)[sp].d(T)[sp].d([m5C])[sp].d([m5C])[sp].d(A)[sp].d(A)[sp].d(A)[sp].d(T)[sp].d(G)[sp].[moe](T)p.[moe](G)p.[moe](T)[sp].[moe]([m5C])}$$$$ (last 3' nucleoside missing)  2 score 0-7
15. RNA1{[moe]([m5C])[sp].[moe](G)p.[moe]([m5C])[sp].[moe](A)[sp].[moe]([m5C])[sp].d(T)[sp].d(T)[sp].d(A)[sp].d(A)[sp].d([m5C])[sp].d(A)[sp].d(A)[sp].d(T)[sp].d(A)[sp].d(T)[sp].[moe]([m5C])[sp].[moe](A)p.[moe](T)[sp].[moe](A)}$$$$ (last 3' nucleoside missing)  1 score 0-7
16. RNA1{[moe](A)[sp].[moe](A)p.[moe]([m5C])[sp].[moe](G)[sp].[moe]([m5C])[sp].d(A)[sp].d([m5C])[sp].d(T)[sp].d(T)[sp].d(A)[sp].d(A)[sp].d([m5C])[sp].d(A)[sp].d(A)[sp].d(T)[sp].[moe](A)[sp].[moe](T)p.[moe]([m5C])[sp].[moe](A)}$$$$ (last 3' nucleoside missing)  0 score 0-7
17. RNA1{[moe](T)[sp].[moe](G)p.[moe]([m5C])[sp].[moe](T)[sp].[moe](G)[sp].d([m5C])[sp].d(T)[sp].d([m5C])[sp].d(A)[sp].d(T)[sp].d(A)[sp].d(T)[sp].d([m5C])[sp].d(T)[sp].d(A)[sp].[moe](A)[sp].[moe](A)p.[moe](G)[sp].[moe](A)}$$$$ (last 3' nucleoside missing)  0 score 0-7
18. RNA1{[moe](T)[sp].[moe](G)p.[moe]([m5C])p.[moe](T)p.[moe]([m5C])[sp].d(T)[sp].d([m5C])[sp].d(T)[sp].d(T)[sp].d(T)[sp].d([m5C])[sp].d(T)[sp].d([m5C])[sp].d(A)[sp].d([m5C])[sp].[moe](A)p.[moe](T)p.[moe](A)[sp].[moe]([m5C])}$$$$ (last 3' nucleoside missing)  0 score 0-7
